Measurements published in ChEMBL document CHEMBL2401690, “Discovery of RG7388, a potent and selective p53-MDM2 inhibitor in clinical development” (J Med Chem, 2013).

Legend:
[1] = Oral bioavailability in C57 mouse at 20 mg/kg; type: ADME, organism-based; conditions: in vivo
[2] = Clearance in human liver microsomes at […] by LC-MS/MS analysis; type: ADME, Microsome
[3] = system: SJSA-1; test: cells; conditions: Homo sapiens
Description: Cytotoxicity against human SJSA1 cells expressing wild type p53 assessed as growth inhibition by MTT assay

[4] = Cmax in C57 mouse at 20 mg/kg, po; type: ADME, organism-based; parameters: dose 20 mg/kg, route oral; conditions: in vivo
[5] = system: HCT-116; test: cells; conditions: Homo sapiens
Description: Cytotoxicity against human HCT116 cells expressing wild type p53 assessed as growth inhibition by MTT assay

[6] = system: SW480; test: cells; conditions: Homo sapiens
Description: Cytotoxicity against human SW480 cells expressing p53 mutant assessed as growth inhibition by MTT assay

[7] = Apparent terminal half-life in C57 mouse at 5 mg/kg, iv; type: ADME, organism-based; parameters: dose 5 mg/kg, route intravenous; conditions: in vivo, read-out: betat1/2(app) (converted)
[8] = system: RKO; test: cells; conditions: Homo sapiens
Description: Cytotoxicity against human RKO cells expressing wild type p53 assessed as growth inhibition by MTT assay

[9] = system: MDA-MB-435; test: cells; conditions: Homo sapiens
Description: Cytotoxicity against human MDA-MB-435 cells expressing p53 mutant assessed as growth inhibition by MTT assay

[10] = Total plasma clearance in C57 mouse at 5 mg/kg, iv; type: ADME, organism-based; parameters: dose 5 mg/kg, route intravenous
[11] = Oral bioavailability in C57 mouse at 50 mg/kg; type: ADME, organism-based; conditions: in vivo
[12] = Cmax in C57 mouse at 50 mg/kg, po; type: ADME, organism-based; parameters: dose 50 mg/kg, route oral; conditions: in vivo
[13] = Oral bioavailability in C57 mouse at 25 mg/kg; type: ADME, organism-based; conditions: in vivo
[14] = Apparent terminal half-life in C57 mouse at 3.6 mg/kg, iv; type: ADME, organism-based; parameters: dose 3.6 mg/kg, route intravenous; conditions: in vivo, read-out: betat1/2(app) (converted)
[15] = Cmax in C57 mouse at 25 mg/kg, po; type: ADME, organism-based; parameters: dose 25 mg/kg, route oral; conditions: in vivo
[16] = Total plasma clearance in C57 mouse at 3.6 mg/kg, iv; type: ADME, organism-based; parameters: dose 3.6 mg/kg, route intravenous
[17] = AUC in nude mouse xenografted with human SJSA1 cells at 25 mg/kg, po; type: ADME, organism-based, SJSA-1; parameters: dose 25 mg/kg, route oral; conditions: in vivo
[18] = system: SJSA-1; test: Cell cycle arrest in human SJSA1 cells assessed as accumulation at G1 phase after 24 hrs; type: functional, cell-based
[19] = system: SJSA-1; test: Cell cycle arrest in human SJSA1 cells assessed as accumulation at G2/M phase after 24 hrs; type: functional, cell-based
[20] = target: E3 ubiquitin-protein ligase Mdm2 (Homo sapiens) (UniProt Q00987); test: Inhibition of MDM2 in human SJSA1 cells assessed as induction of p53 stabilization after 20 hrs by Western blot analysis; type: cell-based; conditions: SJSA-1
E3 ubiquitin-protein ligase Mdm2 (Homo sapiens), sequence (Q00987 whole entry, looked up): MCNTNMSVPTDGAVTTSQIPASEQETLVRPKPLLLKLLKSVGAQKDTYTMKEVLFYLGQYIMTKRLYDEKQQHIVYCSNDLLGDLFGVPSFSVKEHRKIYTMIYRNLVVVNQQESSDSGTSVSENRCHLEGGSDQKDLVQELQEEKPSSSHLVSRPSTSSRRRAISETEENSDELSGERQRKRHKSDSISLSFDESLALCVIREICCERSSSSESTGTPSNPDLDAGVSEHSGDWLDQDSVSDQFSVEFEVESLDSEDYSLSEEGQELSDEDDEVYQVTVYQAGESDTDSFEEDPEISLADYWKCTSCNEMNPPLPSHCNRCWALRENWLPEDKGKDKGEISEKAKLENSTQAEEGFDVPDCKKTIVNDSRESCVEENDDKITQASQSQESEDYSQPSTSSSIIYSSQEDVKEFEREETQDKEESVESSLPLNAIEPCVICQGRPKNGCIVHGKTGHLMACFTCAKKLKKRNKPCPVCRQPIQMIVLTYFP

[21] = system: SJSA-1; test: Induction of apoptosis in human SJSA1 cells after 48 hrs by annexin V staining assay; type: functional, cell-based
[22] = system: SJSA-1; test: Antitumor activity against human SJSA1 cells xenografted in nude mouse assessed as tumor growth inhibition at 12.5 mg/kg, po after 2 weeks relative to control; type: functional; conditions: SJSA-1, 336 h, read-out: TGI
[23] = system: SJSA-1; test: Antitumor activity against human SJSA1 cells xenografted in nude mouse assessed as tumor growth inhibition at 25 mg/kg, po after 2 weeks relative to control; type: functional; conditions: SJSA-1, 336 h, read-out: TGI
[24] = AUC in nude mouse xenografted with human SJSA1 cells at 12.5 mg/kg, po; type: ADME, organism-based, SJSA-1; parameters: dose 12.5 mg/kg, route oral; conditions: in vivo
[25] = Oral bioavailability in nude mouse at 50 mg/kg; type: ADME, organism-based; conditions: in vivo
[26] = Half life in nude mouse at 5 mg/kg, iv; type: ADME, organism-based; parameters: dose 5 mg/kg, route intravenous; conditions: in vivo
[27] = Clearance in nude mouse at 5 mg/kg, iv; type: ADME, organism-based; parameters: dose 5 mg/kg, route intravenous; conditions: in vivo
[28] = Cmax in nude mouse at 50 mg/kg, po; type: ADME, organism-based; parameters: dose 50 mg/kg, route oral; conditions: in vivo
[29] = AUC in nude mouse xenografted with human SJSA1 cells at 50 mg/kg, po; type: ADME, organism-based, SJSA-1; parameters: dose 50 mg/kg, route oral; conditions: in vivo
[30] = system: SJSA-1; test: Antitumor activity against human SJSA1 cells xenografted in nude mouse assessed as tumor growth inhibition at 100 mg/kg, po after 2 weeks relative to control; type: functional; conditions: SJSA-1, 336 h, read-out: TGI
[31] = system: SJSA-1; test: animal or person; conditions: Mus musculus, SJSA-1, po, 336 h, read-out: TGI
Description: Antitumor activity against human SJSA1 cells xenografted in nude mouse assessed as tumor growth inhibition at 50 mg/kg, po after 2 weeks relative to control

[32] = AUC in nude mouse xenografted with human SJSA1 cells at 100 mg/kg, po; type: ADME, organism-based, SJSA-1; parameters: dose 100 mg/kg, route oral; conditions: in vivo

Structure (SMILES) | CLhep predicted [2] [mL/min/kg] | IC50 [3] [nM] | IC50 [5] [nM] | IC50 [6] [nM] | half-life [7] [h] | IC50 [8] [nM] | IC50 [9] [nM] | clearance [10] [mL/min/kg] | bioavailability [11] [%] | Cmax [12] [ng/mL] | further results
CC(C)(C)C[C@@H]1N[C@@H](C(=O)NCC[C@H](O)CO)[C@H](c2cccc(Cl)c2)[C@@]1(C#N)c1ccc(Cl)cc1 | 18.7 | 2100 | 3400 | 30000 | 0.44 | 3000 | 14400 | 52.9 |  |  | bioavailability [1]: 6.2%; Cmax [4]: 500 ng/mL
COc1cc(NC(=O)[C@@H]2N[C@@H](CC(C)(C)C)[C@](C#N)(c3ccc(Cl)cc3F)[C@H]2c2cccc(Cl)c2F)ccc1C(=O)O | 6.6 | 30 | 40 | 18400 | 4.8 | 140 | 6200 | 21.8 | 56 | 4100 | 
CC(C)(C)C[C@@H]1N[C@@H](C(=O)Nc2ccc(C(=O)O)c(F)c2)[C@H](c2cccc(Cl)c2F)[C@@]1(C#N)c1ccc(Cl)cc1F | 12.2 | 50 | 140 | 15900 | 4.4 | 440 | 11300 | 18.4 | 49 | 3800 | 
CC(C)(C)C[C@@H]1N[C@@H](C(=O)Nc2ccn(CC(C)(C)O)n2)[C@H](c2cccc(Cl)c2F)[C@@]1(C#N)c1ccc(Cl)cc1F | 4.2 | 1320 | 1420 | 6280 |  | 1420 | 8560 |  |  |  | bioavailability [13]: < 1%; half-life [14]: 1.48 h; Cmax [15]: 10 ng/mL; clearance [16]: 19.8 mL/min/kg
COc1cc(C(=O)O)ccc1NC(=O)[C@@H]1N[C@@H](CC(C)(C)C)[C@](C#N)(c2ccc(Cl)cc2F)[C@H]1c1cccc(Cl)c1F [IDASANUTLIN] | 4.3 | 10 | 10 | 13300 | 1.6 | 70 | 9100 | 10.3 | 80 | 9900 | AUC [17]: 29 µg·h/mL; Activity [18]: Dose-dependent effect; Activity [19]: Dose-dependent effect; inhibition [20]: Dose-dependent effect; Activity [21]: Dose-dependent effect; inhibition in vivo at 12.5 mg/kg [22]: 88%; inhibition in vivo at 25 mg/kg [23]: > 100%; AUC [24]: 23 µg·h/mL
CC(C)(C)C[C@@H]1N[C@@H](C(=O)Nc2cccc(C(=O)O)c2)[C@H](c2cccc(Cl)c2F)[C@@]1(C#N)c1ccc(Cl)cc1F |  | 160 | 410 | 15600 |  | 1540 | 9700 |  |  |  | 
CC(C)(C)C[C@@H]1N[C@@H](C(=O)Nc2ccc3cc(C(=O)O)ccc3c2)[C@H](c2cccc(Cl)c2F)[C@@]1(C#N)c1ccc(Cl)cc1F | 9.4 | 40 | 140 | 12300 | 1.41 | 280 | 9200 | 24.5 | 27 | 1700 | 
CC(C)(C)C[C@@H]1N[C@@H](C(=O)NCC[C@H](O)CO)[C@H](c2cccc(Cl)c2F)[C@@]1(C#N)c1ccc(Cl)cc1F | 19.9 | 2100 |  | 16800 | 0.52 |  |  | 51.7 |  |  | bioavailability [1]: 3.6%; Cmax [4]: 300 ng/mL
CC(C)(C)C[C@@H]1N[C@@H](C(=O)Nc2ccc(C(=O)O)cn2)[C@H](c2cccc(Cl)c2F)[C@@]1(C#N)c1ccc(Cl)cc1F | 8.9 | 50 | 90 | 13800 | 1.03 | 400 | 11200 | 29.7 | 53 | 3000 | 
CC(C)(C)C[C@@H]1N[C@@H](C(=O)Nc2ccc(C(=O)O)cc2F)[C@H](c2cccc(Cl)c2F)[C@@]1(C#N)c1ccc(Cl)cc1F | 7 | 90 | 200 | 13500 | 3.1 | 500 | 11700 | 11.5 | 100 | 18000 | 
CC(C)(C)C[C@@H]1N[C@@H](C(=O)Nc2ccc(C(=O)O)cc2)[C@H](c2cccc(Cl)c2F)[C@@]1(C#N)c1ccc(Cl)cc1F | 4.9 | 40 | 90 | 13800 |  | 210 | 11100 |  |  |  | bioavailability [25]: 83%; half-life [26]: 4.34 h; clearance [27]: 13.8 mL/min/kg; Cmax [28]: 12000 ng/mL
CCOc1cc(C(C)(C)C)ccc1C1=N[C@@](C)(c2ccc(Cl)cc2)[C@@](C)(c2ccc(Cl)cc2)N1C(=O)N1CCN(CCCS(C)(=O)=O)CC1 [RO-5045337] | 5.8 |  |  |  |  |  |  |  |  |  | AUC [29]: 200 µg·h/mL; half-life [26]: 2.7 h; clearance [27]: 8.6 mL/min/kg; inhibition in vivo at 100 mg/kg [30]: > 100%; inhibition in vivo at 50 mg/kg [31]: 74%; AUC [32]: 380 µg·h/mL
